In paper PMC12862769 (ACS infectious diseases, 2025):

Test system: E. faecium NR-31909
Test: Multi-step resistance selection assay
Type: cell-based
Details: after five passages

CO[C@H]1/C=C/O[C@@]2(C)Oc3c(C)c(O)c4c(O)c(c(/C=N/N5CCN(C)CC5)c(O)c4c3C2=O)NC(=O)/C(C)=C\C=C\[C@H](C)[C@H](O)[C@@H](C)[C@@H](O)[C@@H](C)[C@H](OC(C)=O)[C@@H]1C [rifampicin]
MIC increase: 8 fold MIC
